Test results as given in US20240349720A1, “ANTIMICROBIAL COMPOSITIONS COMPRISING ALKYL ETHER CARBOXYLIC ACIDS AND METHODS OF USE THEREOF” (ECOLAB USA INC., priority 2023, published 2024).

How the values were obtained:
[1] = tested on: E. coli; assay: Food contact sanitizing efficacy (AOAC Method 960.09); format: cell-based; conditions: pH adjusted to 2.1 with phosphoric acid, 30 seconds exposure
Method: (§1) Additional testing to confirm food contact sanitizing efficacy (AOAC Method 960.09) comparing three AEC surfactants was conducted where the surfactants were diluted in 500 ppm synthetic hard water and pH adjusted to 2.1 with phosphoric acid. The evaluated AEC surfactants are further described above in Table 2.

[2] = tested on: S. aureus; assay: as above; format: cell-based; conditions: pH adjusted to 2.1 with phosphoric acid, 30 seconds exposure
Method: as §1

[3] = 500 ppm surfactant in 500 ppm synthetic hard water
[4] = 750 ppm surfactant in 500 ppm synthetic hard water
[5] = 1000 ppm surfactant in 500 ppm synthetic hard water

| Substance | Log reduction E. coli [1, 3] | Log reduction E. coli [1, 4] | Log reduction E. coli [1, 5] | Log reduction S. aureus [2, 3] | Log reduction S. aureus [2, 4] | Log reduction S. aureus [2, 5] |
| --- | --- | --- | --- | --- | --- | --- |
| Capryleth-4 Carboxylic acid | >7.59 log | >7.59 log | >7.59 log | >7.34 log | >7.34 log | >7.34 log |
| Capryleth-6 Carboxylic acid | 1.98 log | 3.44 log | >7.59 log | >7.34 log | >7.34 log | >7.34 log |
| Capryleth-9 Carboxylic acid | <1.19 log | <1.19 log | <1.19 log | 5.31 log | >7.34 log | >7.34 log |
